We go through four compounds from patent US20260248127A1, “IMPROVED PESTICIDAL COMPOSITIONS AND PEST CONTROL METHODS” (priority 2022, published 2026).

For series [1], the system named is Aedes aegypti LVP (SP-susceptible) strain 3-5 day old adults. As to the kind of experiment: Adult dose-mortality assay, LVP strain. It counts as in vivo. The following applies: for LC50: Aedes aegypti, read-out: Lethal Dose (LC50).
In series [2] the test system is Aedes aegypti PRS (SP-resistant) strain L3 larvae. As to the kind of experiment: Qcide combinations larval dose-mortality assay, PRS strain. It counts as in vivo. On the procedure:
(§1) Results represent n=3 biological replicates. […] The Synergistic Ratio (SR) and P-value are shown. Mosquito mortality is shown for A and B: LVP at 24 and 48 hours. […] Mosquito mortality is shown for A and B: PRS at 24 and 48 hours.
(§2) Results represent n=3 biological replicates. […] The Synergistic Ratio (SR) and P-value are shown.

In series [3] the test system is Musca domestica CAR21 (insecticide susceptible) strain. As to the kind of experiment: Topical synergist 24-hour mortality assay, CAR21 house flies. The following applies: for % Dead / Alive / Dead: CAR21, topical doses; for % Dead: 24-hour mortality; for Alive / Dead: number of flies, pooled of 4 replicates, 24-hour; for maximum sublethal dose: for both strains (CAR21, KS17). Format: in vivo.

In series [4] the test system is Aedes aegypti PRS (SP-resistant) strain L3 larvae. Description: Larval dose-mortality (dose response) assay, PRS strain. Format: in vivo. The following applies: for LC50: Aedes aegypti, PRS L3 larvae, read-out: Lethal Concentration (LC50). The source says: (§3) Results represent n=3 biological replicates.
For series [5], the system named is Aedes aegypti PRS (SP-resistant) strain 3-5 day old adults. Description: Adult dose-mortality assay, PRS strain. It counts as in vivo. The following applies: for LC50: Aedes aegypti, PRS adults.
The test system of series [6] is Musca domestica KS17 (insecticide resistant) strain. As to the kind of experiment: Topical synergist 24-hour mortality assay, KS17 house flies. It counts as in vivo. The note with it: topical doses; for % Dead: 24-hour mortality; for Alive / Dead: number of flies, pooled of 4 replicates, 24-hour.
For series [7], the system named is Aedes aegypti LVP (SP-susceptible) strain L3 larvae. Description: Larval dose-mortality (dose response) assay, LVP strain. It counts as in vivo. The following applies: for LC50: Aedes aegypti, read-out: Lethal Concentration (LC50).
Excerpt: as §3

For series [8] the test system is unchanged. Description: Larval mortality-time assay, LVP strain. It counts as in vivo. The note with it: table row says LC50 LVP dose, text LC90 dose. The source says:
Results represent n=3 biological replicates. Lethal time (LT50) of post topical exposure to a Lethal Concentration (LC90) dose is shown in comparison to SP and the technical grade synthetic pyrethroid, Deltamethrin.

For series [9] the test system is unchanged. Description: Qcide combinations larval dose-mortality assay, LVP strain. It counts as in vivo. As to the method: as §1, §2
In series [10] the test system is Aedes aegypti PRS (SP-resistant) strain L3 larvae. The note with it: data from a previous study, cited from earlier work.
Series [11] deals with Aedes aegypti LVP (SP-susceptible) strain L3 larvae. The note with it: data from a previous study, cited from earlier work.
[12] abbreviates: 24 h, Permethrin alone (Table 4).
The mark [13] stands for this setting: 24 h, Permethrin alone (Table 5).
The mark [14] stands for this setting: 48 h, Permethrin alone (Table 4).
[15] abbreviates: 48 h, Permethrin alone (Table 5).

Molecules are shown by their SMILES. In brackets after ≈: the same amount, converted by molar mass. Several values for one entry are separate records, joined by “and”; a condition that tells them apart may be missing. Equal entries are not always repeated. Where two headings read alike, the source gives them in different places.

Regarding `CC1(C)C(C=C(Cl)Cl)C1C(=O)OCc1cccc(Oc2ccccc2)c1` (stereo not drawn) [Permethrin, permethrin], in series [1] (24 hours post exposure), the “Lethal Dose (LC50)” value was 0.5429 mg/L. The LC50 in series [1] (24 h, 24 hours post exposure) is 0.543 mg/L (≈ 1.39 µM); in [1] (48 h, 48 hours post exposure) it was 0.505 mg/L (≈ 1.29 µM); in [2] (setting [12]), 2.1 mg/L; in series [2] (setting [13]), 1.21 mg/L; in series [2] (setting [14]) it was 1.3 mg/L; in series [2] (setting [15]) it was 0.87 mg/L. In addition, the LC50 in series [4] (24 hours post exposure) was determined as 0.7 mg/L (≈ 1.79 µM); in series [4] (48 hours post exposure) it was 0.6 mg/L (≈ 1.53 µM); in series [4] (72 hours post exposure), 0.6 mg/L (≈ 1.53 µM); in series [5] (24 hours post exposure, read-out: Lethal Dose (LC50)), 130 mg/L (≈ 332 µM); in series [5] (24 hours, read-out: LC50), 130 mg/L (≈ 332 µM); in [5] (48 hours post exposure, read-out: Lethal Dose (LC50)), 120 mg/L (≈ 307 µM). For the same compound, the LC50 in series [7] (24 h, 24 hours post exposure) is 0.026 mg/L (≈ 0.0664 µM); in series [7] (48 h, 48 hours post exposure), 0.0252 mg/L (≈ 0.0644 µM); in series [7] (72 h, 72 hours post exposure), 0.0214 mg/L (≈ 0.0547 µM); in [9] (setting [12]) it was 0.0205 mg/L; in [9] (setting [13]) it was 0.0237 mg/L; in series [9] (setting [14]), 0.0181 mg/L. Further, the LC50 in series [9] (setting [15]) was determined as 0.0217 mg/L. The “% Dead” value in [3] came out at 7.5%; in [6], 3.8%. The LD50 dose in series [3] (CAR21 strain, topical) is recorded as 12 ng/fly. Also, the Alive was determined as 74 in [3] and 77 in series [6]. The Dead is on record as 6 in [3] and 3 in series [6]. Besides, the “resistance of PRS strain larvae as compared to LVP strain” value in [4] (L3 larvae, under assay conditions) is listed as “approx. 25 fold”. The “resistance of PRS strain adults as compared to LVP” value in [5] (adults, under assay conditions) was “approximately 240 fold”. The “Lethal Concentration (LC50)” value in [7] (24 hours post exposure) is 0.0259 mg/L. In addition, the “Lethal Time (LT50)” value in [8] is 5.5 h and 5.6 h.

As for `CC1(C)[C@H](C(=O)O[C@H](C#N)c2cccc(Oc3ccccc3)c2)[C@@H]1C=C(Br)Br` [Deltamethrin], the “Lethal Time (LT50)” value in series [8] was 5.6 h and 5.5 h.

Consider `CC(C)C(=O)C1C(=O)C(C)(C)C(=O)C(C)(C)C1=O` [Flavesone, flavesone], for which the “Lethal Concentration (LC50)” value is 39 mg/L in [10] (24 hours, listed as flavesone); 38.7 mg/L in series [10] (24 hours); 37.1 mg/L in [10] (48 hours); 37.1 mg/L in series [10] (72 hours); 41 mg/L in series [11] (24 hours, listed as flavesone); 40.9 mg/L in [11] (24 hours). For the same compound, the “Lethal Concentration (LC50)” value in [11] (48 hours) is 40.5 mg/L; in series [11] (72 hours) it was 39.7 mg/L. For the same compound, the “% Dead” value in series [3] is reported as 0.0%. Moreover, the maximum sublethal dose in [3] (topical) is listed as 0.3 % v/v. For the same compound, the Alive in series [3] is 80. In [3], the Dead is reported as 0.

On to `CCCCOCCOCCOCc1cc2c(cc1CCC)OCO2` [PBO, piperonyl butoxide], for which, in series [3], the “% Dead” value came out at 0.0%, the Alive is listed as 80 and the Dead amounted to 0. Besides, the maximum sublethal dose in series [3] (topical) came to 10 μg/fly. In series [6], the “% Dead” value is 3.9%, the Alive is 74 and the Dead stood at 3.
